Assay results published in US20240262844A1, “PYRIDINIUM SALTS AND METHODS OF USE” (UNIVERSITY OF WYOMING, priority 2023, published 2024).
“And” between values parts separate entries of the source, which are not always exact repeats. Equal entries are not always repeated. Structures can show the parent of a compound that is named as a salt.

Key:
[1] = system: Octreotide acetate (1 kDa); assay: Photochemical labeling of octreotide (LC/MS); type: biochemical; conditions: 10 μM octreotide acetate, 100 μM pyridinium salt, 30 minutes
Procedure: (§1) General Procedure B: Photochemical Irradiation of Peptides and Proteins: To a 2 mL Pyrex LC/MS vial (Thermo model #03-391-39) were sequentially added solutions containing the desired biomolecule, glutathione (GSH), pyridinium salt, and ammonium acetate (NH4OAc). The resulting solution was diluted to a final volume of 500 μL and then sparged using nitrogen for a minimum of 30 minutes prior to irradiation. The actively sparging solution was then placed in an EvoluChem™ PhotoRedOx Box photoreactor that was equipped with a Kessil, PR160 427 nm LED Lamp and was then irradiated (100% lamp intensity) for the designated time at room temperature while maintaining active sparging. The resultant reaction mixture was then analyzed directly by LC/MS. Analysis of labeling outcomes using LC/MS was performed either by extracted ion chromatogram intensities (method A) or by integrating the area under the peaks associated with peptide content (method B). These values were totaled, and estimated percentages were assigned according to relative intensities of peaks or ion counts.
Labeling of Octreotide with Pyridinium Salt 2a (Octreotide-2a Conjugate). […] The resulting reaction mixture was directly analyzed by LC/MS using method A to have proceeded with 88% conversion with mono labeling. […]

thioredoxin (11.6 kDa) = molecular target: T1, thioredoxin (11.6 kDa) (Escherichia coli, UniProt P0AA25); assay: Photochemical labeling of thioredoxin (LC/MS, MS-MS); type: biochemical
T1 construct: purchased Sigma Aldrich; host or cells: E. coli
Procedure: as §1
Labeling of Thioredoxin with Pyridinium Salt 2a (Thioredoxin-2a Conjugate). […] The reaction mixture was directly analyzed by LC/MS using method A and was estimated to have proceeded with 93% conversion and a 14.5:1 mono:di labeled ratio and 3% glutathionylation of all protein content. […]

T1 sequence (P0AA25 whole entry): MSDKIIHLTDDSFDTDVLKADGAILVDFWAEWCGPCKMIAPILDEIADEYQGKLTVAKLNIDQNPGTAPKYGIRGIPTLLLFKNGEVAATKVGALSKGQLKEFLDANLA

**Q.** What does the source list for COC(=O)N(C)[n+]1c(C)cc(-c2ccc3cc(OC)ccc3c2)cc1C [Pyridinium salt 2a, 1-((methoxycarbonyl)(methyl)amino)-4-(6-methoxynapthalen-2-yl)-2,6-dimethylpyridin-1-ium tetrafluoroborate]?
**A.** conversion ([1]; 20 mM NH4OAc pH 6.9, glutathione, 427 nm LED): 88% and 93%; degree of labeling ([1]; 427 nm): mono labeling; conversion (thioredoxin (11.6 kDa); 10 μM thioredoxin, 200 μM pyridinium salt, 300 μM glutathione, 20 mM NH4OAc pH 6.9, 427 nm, 60 minutes): 93% and 87%; site of tryptophan modification (thioredoxin (11.6 kDa); digestion/MS-MS): Trp-31
